Reference: ChEMBL document CHEMBL1151157, “New cytotoxic steroids from the Indian Ocean sponge Axinella cf. bidderi” (2004)
In brackets after ≈: the same amount, converted by molar mass. Activity calls are given as the source filed them. No cut-off for these calls is given here.

How the values were obtained:
Format in all cases: functional
LNCaP = assay: Cytotoxicity against human LNCAP cells by MTT assay
Homo sapiens = species: Homo sapiens; assay: (§1) Cytotoxicity against human NSCLC-N6-L16 cells by MTT assay
LoVo = assay: Cytotoxicity against human LoVo cells by MTT assay
PANC-1 = assay: Cytotoxicity against human PANC1 cells by MTT assay
[1] = Cytotoxicity against human IGROV-ET cells by MTT assay
[2] = as §1

Compound | GI50 (LNCaP) [µg/mL] | Activity (Homo sapiens) | GI50 (LoVo) [µg/mL] | GI50 (PANC-1) [µg/mL] | GI50 [1] [µg/mL] | Activity (PANC-1) | GI50 [2] [µg/mL]
CC1=C(CCC(C)C)OC[C@]23CC[C@H]4[C@@H](CC=C5C[C@@H](O)CC[C@@]54C)[C@@H]2CC[C@H]13 | 3.52 (≈ 8.83 µM) | inactive | 6.91 (≈ 17.3 µM) | 8.92 (≈ 22.4 µM) | 7.95 (≈ 19.9 µM) | – | –
CC1=C(CCC(C)C)OC[C@]23CC[C@H]4[C@@H](CC[C@H]5C[C@@H](O)CC[C@@]54C)[C@@H]2CC[C@H]13 | 2.88 (≈ 7.19 µM) | inactive | 8.29 (≈ 20.7 µM) | – | 6.66 (≈ 16.6 µM) | inactive | –
CC(C)CC1OC1[C@@H](C)[C@@]1(O)CC[C@H]2[C@@H]3CC=C4C[C@@H](O)CC[C@]4(C)[C@H]3CC[C@@]21C (stereo not given in full) | 3.09 (≈ 7.42 µM) | – | 6.23 (≈ 15 µM) | 2.17 (≈ 5.21 µM) | 1.24 (≈ 2.98 µM) | – | 2 (≈ 4.8 µM)
CC(C)C(C)C1OC1[C@@H](C)[C@@]1(O)CC[C@H]2[C@@H]3CC=C4C[C@@H](O)CC[C@]4(C)[C@H]3CC[C@@]21C (stereo not given in full) | 6.42 (≈ 14.9 µM) | – | 4.02 (≈ 9.33 µM) | 2.74 (≈ 6.36 µM) | 1.68 (≈ 3.9 µM) | – | 0.6 (≈ 1.39 µM)
